In PubChem BioAssay AID2060908 (Molecular Pharmacology Branch, DTP, NCI, 2025):

Tested on: 186277-243-T-J2-PDC complex spheroids, viability
Assay: Anticancer human tumor 186277-243-T-J2-PDC patient-derived colon adenocarcinoma cell line growth inhibition [RAS]
Details: for IC50: curve of first compound; for viability, T/C: stronger effect = lower value
Outline: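 Tumour cells grown as complex spheroids with HUVEC endothelial cells and mesenchymal stem cells, treated with RAS pathway inhibitor combinations. Each agent spans half-log steps from near clinical Cmax, or 10 microM where Cmax is unknown.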

[1] = second compound 0.000949 µM, first compound 0.0316 µM
[2] = second compound 0.000949 µM, first compound 0.1 µM
[3] = second compound 0.000949 µM, first compound 0.316 µM
[4] = second compound 0.000949 µM, first compound 1 µM
[5] = second compound 0.003 µM, first compound 0.0316 µM
[6] = second compound 0.003 µM, first compound 0.1 µM
[7] = second compound 0.003 µM, first compound 0.316 µM
[8] = second compound 0.003 µM, first compound 1 µM
[9] = second compound 0.00949 µM, first compound 0.0316 µM
[10] = second compound 0.00949 µM, first compound 0.1 µM
[11] = second compound 0.00949 µM, first compound 0.316 µM
[12] = second compound 0.00949 µM, first compound 1 µM
[13] = second compound 0.03 µM, first compound 0.0316 µM
[14] = second compound 0.03 µM, first compound 0.1 µM
[15] = second compound 0.03 µM, first compound 0.316 µM
[16] = second compound 0.03 µM, first compound 1 µM
[17] = second compound 0.0949 µM, first compound 0.0316 µM
[18] = second compound 0.0949 µM, first compound 0.1 µM
[19] = second compound 0.0949 µM, first compound 0.316 µM
[20] = second compound 0.0949 µM, first compound 1 µM
[21] = second compound 0.3 µM, first compound 0.0316 µM
[22] = second compound 0.3 µM, first compound 0.1 µM
[23] = second compound 0.3 µM, first compound 0.316 µM
[24] = second compound 0.3 µM, first compound 1 µM
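Also: spheroids exposed to compounds for 7 days before viability read.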

In the case of `NC1c2ccccc2OC12CCN(c1cnc3c(N4CCCc5ncccc54)n[nH]c3n1)CC2` (centres undefined) + CCn1c(-c2cc(N3CCN(C)CC3)cnc2C(C)OC)c2c3cc(ccc31)-c1csc(n1)CC(NC(=O)C1CC1C)C(=O)N1CCCC(N1)C(=O)OCC(C)(C)C2, the IC50 (second compound 0.000949 µM) is reported as 54.2 nM, the IC50 (second compound 0.003 µM) is reported as under 31.6 nM and the IC50 (second compound 0.00949 µM) is reported as under 31.6 nM. For the same molecule, the IC50 (second compound 0.03 µM) was under 31.6 nM, the IC50 (second compound 0.0949 µM) was under 31.6 nM and the IC50 (second compound 0.3 µM) was under 31.6 nM. It also gave a viability, T/C [1] of 70.1%, a viability, T/C [2] of 26.9% and a viability, T/C [3] of 6.05%. It also gave a viability, T/C [4] of 3.49%, a viability, T/C (second compound 0.000949 µM, first compound 3.16 µM) of 2.69% and a viability, T/C (second compound 0.000949 µM, first compound 10 µM) of 2.5%. The viability, T/C [5] was 25.1%, the viability, T/C [6] was 6.27% and the viability, T/C [7] was 3.3%. For the same molecule, the viability, T/C [8] was 2.57%, the viability, T/C (second compound 0.003 µM, first compound 3.16 µM) was 2.3% and the viability, T/C (second compound 0.003 µM, first compound 10 µM) was 1.8%. It also gave a viability, T/C [9] of 7.02%, a viability, T/C [10] of 3.42% and a viability, T/C [11] of 2.63%. The viability, T/C [12] was 1.94%, the viability, T/C (second compound 0.00949 µM, first compound 3.16 µM) was 1.79% and the viability, T/C (second compound 0.00949 µM, first compound 10 µM) was 1.61%. The viability, T/C [13] was 3.98%, the viability, T/C [14] was 3.86% and the viability, T/C [15] was 2.26%. The viability, T/C [16] was 1.79%, the viability, T/C (second compound 0.03 µM, first compound 3.16 µM) was 3.5% and the viability, T/C (second compound 0.03 µM, first compound 10 µM) was 1.52%. It also gave a viability, T/C [17] of 3.58%, a viability, T/C [18] of 2.71% and a viability, T/C [19] of 2.03%. It also gave a viability, T/C [20] of 1.94%, a viability, T/C (second compound 0.0949 µM, first compound 3.16 µM) of 1.81% and a viability, T/C (second compound 0.0949 µM, first compound 10 µM) of 1.53%. The viability, T/C [21] was 3.17%, the viability, T/C [22] was 2.52% and the viability, T/C [23] was 1.83%. For the same molecule, the viability, T/C [24] was 1.56%, the viability, T/C (second compound 0.3 µM, first compound 3.16 µM) was 1.77% and the viability, T/C (second compound 0.3 µM, first compound 10 µM) was 1.56%.

`Nc1ccn(C2OC(CO)C(O)C2(F)F)c(=O)n1` (centres undefined) + CCn1c(-c2cccnc2C(C)OC)c2c3cc(ccc31)N1CCOC(CC(NC(=O)C(C(C)C)N(C)C(=O)C3(F)CCN(C(=O)C#CC(C)(C)N(C)C)CC3)C(=O)N3CCCC(N3)C(=O)OCC(C)(C)C2)C1 showed an IC50 (second compound 0.000949 µM) of 4.49 nM, an IC50 (second compound 0.003 µM) of 4.28 nM and an IC50 (second compound 0.00949 µM) of 3.48 nM. For the same molecule, the IC50 (second compound 0.03 µM) was 4.6 nM, the IC50 (second compound 0.0949 µM) was under 3.16 nM and the IC50 (second compound 0.3 µM) was under 3.16 nM. For the same molecule, the viability, T/C (second compound 0.000949 µM, first compound 0.00316 µM) was 67.5%, the viability, T/C (second compound 0.000949 µM, first compound 0.01 µM) was 10.1% and the viability, T/C [1] was 8.11%. It also gave a viability, T/C [2] of 7.98%, a viability, T/C [3] of 8.36% and a viability, T/C [4] of 8.73%. The viability, T/C (second compound 0.003 µM, first compound 0.00316 µM) was 63.9%, the viability, T/C (second compound 0.003 µM, first compound 0.01 µM) was 11.2% and the viability, T/C [5] was 8.78%. It also gave a viability, T/C [6] of 8.02%, a viability, T/C [7] of 8.07% and a viability, T/C [8] of 8.41%. It also gave a viability, T/C (second compound 0.00949 µM, first compound 0.00316 µM) of 53.5%, a viability, T/C (second compound 0.00949 µM, first compound 0.01 µM) of 10.5% and a viability, T/C [9] of 9.25%. For the same molecule, the viability, T/C [10] was 7.85%, the viability, T/C [11] was 8.92% and the viability, T/C [12] was 8.55%. The viability, T/C (second compound 0.03 µM, first compound 0.00316 µM) was 68.8%, the viability, T/C (second compound 0.03 µM, first compound 0.01 µM) was 10.9% and the viability, T/C [13] was 8.53%. The viability, T/C [14] was 8.14%, the viability, T/C [15] was 8.68% and the viability, T/C [16] was 8.3%. The viability, T/C (second compound 0.0949 µM, first compound 0.00316 µM) was 44.6%, the viability, T/C (second compound 0.0949 µM, first compound 0.01 µM) was 10.5% and the viability, T/C [17] was 8.39%. It also gave a viability, T/C [18] of 7.33%, a viability, T/C [19] of 8.62% and a viability, T/C [20] of 7.75%. It also gave a viability, T/C (second compound 0.3 µM, first compound 0.00316 µM) of 30.3%, a viability, T/C (second compound 0.3 µM, first compound 0.01 µM) of 7.82% and a viability, T/C [21] of 6.28%. It also gave a viability, T/C [22] of 6.15%, a viability, T/C [23] of 6.47% and a viability, T/C [24] of 5.78%.
